Measurements taken from article PMC6735358, “Synthesis and bioevaluation of novel steroidal isatin conjugates derived from epiandrosterone/androsterone” (Journal of Enzyme Inhibition and Medicinal Chemistry, 2019).

Experiments:
[1] = system: HepG2 (Human hepatocellular liver carcinoma cell line); assay: MTT in vitro cytotoxicity, HepG2; conditions: HepG2, 72 h, read-out: In vitro cytotoxicity IC50
Protocol: (§2) After removal of the growth medium, six serial dilutions of each tested compound in 200 µL test medium were added. Plates were incubated at 37 °C in a humidified atmosphere containing 5% CO2. After 72 h of exposure, the culture medium was removed and 30 µL of the MTT solution (5 mg/mL in PBS) was added to each well. The plate was further incubated for 4 h to allow MTT formazan formation. To dissolve the resulting MTT formazan, 50 µL of DMSO was added to each well, followed by thorough mixing with a microplate shaker. Absorbance at 570 nm was measured on a microplate reader (Thermo Scientific, MK3). […] Assays were performed in triplicate on three independent experiments.

in vitro = conditions: human
Protocol: (§1) Assays were performed in triplicate on three independent experiments.

[2] = system: SGC-7901 (Human gastric cancer cell line); assay: MTT in vitro cytotoxicity, SGC-7901; conditions: SGC-7901, 72 h, read-out: In vitro cytotoxicity IC50
Protocol: as §2

[3] = system: A875 (Human melanoma cell line); assay: MTT in vitro cytotoxicity, A875; conditions: A875, 72 h, read-out: In vitro cytotoxicity IC50
Protocol: as §2

[4] = system: SGC-7901, A875 and HepG2 cell lines; assay: MTT in vitro cytotoxicity, tested cancer cell lines together; assay type: cell-based, human; conditions: for IC50: Homo sapiens, span over SGC-7901, A875, HepG2, read-out: range of IC50 value over the tested cancer cell lines; for dose-response of cell growth inhibition: SGC-7901, A875 and HepG2, Figure 4
Protocol: as §1

## C[C@]12CC[C@H](O)CC1CC[C@@H]1[C@@H]2CC[C@]2(C)C(=NN=C3C(=O)Nc4ccc(I)cc43)CC[C@@H]12 (stereo partly drawn) [3e, 3-(((3S,8R,9S,10S,13S,14S)-3-Hydroxy-10,13-dimethyldodecahydro-1H-cyclopenta[a]phenanthren-17(2H,10H,14H)-ylidene)hydrazono)-5-iodoindolin-2-one]
[1]
  IC50: 18.6 ± 4.79 µM
In vitro
  IC50: 14 ± 2.83 µM
[2]
  IC50: 21.7 ± 3.86 µM
[3]
  IC50: 23.8 ± 4.39 µM

## C[C@]12CC[C@@H](O)C[C@@H]1CC[C@@H]1[C@@H]2CC[C@]2(C)C(=NN=C3C(=O)Nc4ccc([N+](=O)[O-])cc43)CC[C@@H]12 [6g, 3-(((3R,5S,8R,9S,10S,13S,14S)-3-Hydroxy-10,13-dimethyldodecahydro-1H-cyclopenta[a]phenanthren-17(2H,10H,14H)-ylidene)hydrazono)-5-nitroindolin-2-one]
[1]
  IC50: 4.31 ± 0.92 µM
In vitro
  IC50: 11.2 ± 3.05 µM
[4]
  IC50: 3.85 to 6.4 µM
  dose-response of cell growth inhibition: dose-dependent manner
[2]
  IC50: 6.4 ± 1.74 µM
[3]
  IC50: 3.85 ± 1.44 µM

## C[C@]12CC[C@H](O)CC1CC[C@@H]1[C@@H]2CC[C@]2(C)C(=NN=C3C(=O)Nc4ccc([N+](=O)[O-])cc43)CC[C@@H]12 (stereo partly drawn) [3g, 3-(((3S,8R,9S,10S,13S,14S)-3-Hydroxy-10,13-dimethyldodecahydro-1H-cyclopenta[a]phenanthren-17(2H,10H,14H)-ylidene)hydrazono)-5-nitroindolin-2-one]
[1]
  IC50: 19.4 ± 3.37 µM
In vitro
  IC50: 33.4 ± 6.15 µM
[2]
  IC50: 11.9 ± 2.45 µM
[3]
  IC50: 26.2 ± 4.59 µM

## C[C@]12CC[C@H](O)CC1CC[C@@H]1[C@@H]2CC[C@]2(C)C(=NN=C3C(=O)Nc4ccccc43)CC[C@@H]12 (stereo partly drawn) [3a, 3-(((3S,8R,9S,10S,13S,14S)-3-Hydroxy-10,13-dimethyldodecahydro-1H-cyclopenta[a]phenanthren-17(2H,10H,14H)-ylidene)hydrazono)indolin-2-one]
[1]
  IC50: 6.72 ± 1.59 µM
In vitro
  IC50: 5.65 ± 1.59 µM
[2]
  IC50: 7.69 ± 2.54 µM
[3]
  IC50: 9.51 ± 1.34 µM

## C[C@]12CC[C@H](O)CC1CC[C@@H]1[C@@H]2CC[C@]2(C)C(=NN=C3C(=O)Nc4ccc(F)cc43)CC[C@@H]12 (stereo partly drawn) [3b, 5-Fluoro-3-(((3S,8R,9S,10S,13S,14S)-3-hydroxy-10,13-dimethyldodecahydro-1H-cyclopenta[a]phenanthren-17(2H,10H,14H)-ylidene)hydrazono)indolin-2-one]
[1]
  IC50: 6.12 ± 1.79 µM
In vitro
  IC50: 5.49 ± 1.33 µM
[4]
  dose-response of cell growth inhibition: dose-dependent manner
[2]
  IC50: 6.67 ± 1.77 µM
[3]
  IC50: 8.58 ± 1.64 µM

## C[C@]12CC[C@H](O)CC1CC[C@@H]1[C@@H]2CC[C@]2(C)C(=NN=C3C(=O)Nc4ccc(Cl)cc43)CC[C@@H]12 (stereo partly drawn) [3c, 5-Chloro-3-(((3S,8R,9S,10S,13S,14S)-3-hydroxy-10,13-dimethyldodecahydro-1H-cyclopenta[a]phenanthren-17(2H,10H,14H)-ylidene)hydrazono)indolin-2-one]
[1]
  IC50: 2.39 ± 0.36 µM
In vitro
  IC50: 5.01 ± 1.37 µM
[4]
  dose-response of cell growth inhibition: dose-dependent manner
[2]
  IC50: 4.92 ± 1.13 µM
[3]
  IC50: 7.92 ± 1.95 µM

## C[C@]12CC[C@H](O)C[C@@H]1CC[C@@H]1[C@@H]2CC[C@]2(C)C(=O)CC[C@@H]12 [Epiandrosterone]
[1]
  IC50: 36.7 ± 10.6 µM
In vitro
  IC50: 91.2 ± 12.3 µM
[2]
  IC50: 69.8 ± 8.47 µM
[3]
  IC50: 63.6 ± 13.2 µM

## C[C@]12CC[C@@H](O)C[C@@H]1CC[C@@H]1[C@@H]2CC[C@]2(C)C(=NN=C3C(=O)Nc4ccc(F)cc43)CC[C@@H]12 [6b, 5-Fluoro-3-(((3R,5S,8R,9S,10S,13S,14S)-3-hydroxy-10,13-dimethyldodecahydro-1H-cyclopenta[a]phenanthren-17(2H,10H,14H)-ylidene)hydrazono)indolin-2-one]
[1]
  IC50: 32.3 ± 4.21 µM
In vitro
  IC50: 7.09 ± 1.57 µM
[2]
  IC50: 9.51 ± 0.49 µM
[3]
  IC50: 42.2 ± 8.19 µM

## Cc1ccc2c(c1)C(=NN=C1CC[C@H]3[C@@H]4CCC5C[C@@H](O)CC[C@]5(C)[C@H]4CC[C@]13C)C(=O)N2 (stereo partly drawn) [3f, 3-(((3S,8R,9S,10S,13S,14S)-3-Hydroxy-10,13-dimethyldodecahydro-1H-cyclopenta[a]phenanthren-17(2H,10H,14H)-ylidene)hydrazono)-5-methylindolin-2-one]
[1]
  IC50: 6.91 ± 0.58 µM
In vitro
  IC50: 6.08 ± 0.54 µM
[2]
  IC50: 7.06 ± 1.27 µM
[3]
  IC50: 6.01 ± 1.95 µM

## Cc1ccc2c(c1)C(=NN=C1CC[C@H]3[C@@H]4CC[C@H]5C[C@H](O)CC[C@]5(C)[C@H]4CC[C@]13C)C(=O)N2 [6f, 3-(((3R,5S,8R,9S,10S,13S,14S)-3-Hydroxy-10,13-dimethyldodecahydro-1H-cyclopenta[a]phenanthren-17(2H,10H,14H)-ylidene)hydrazono)-5-methylindolin-2-one]
[1]
  IC50: 4.85 ± 1.07 µM
In vitro
  IC50: 12.5 ± 4.36 µM
[2]
  IC50: 9.12 ± 1.61 µM
[3]
  IC50: 8.25 ± 1.97 µM

## C[C@]12CC[C@@H](O)C[C@@H]1CC[C@@H]1[C@@H]2CC[C@]2(C)C(=NN=C3C(=O)Nc4cc(F)ccc43)CC[C@@H]12 [6h, 6-Fluoro-3-(((3R,5S,8R,9S,10S,13S,14S)-3-hydroxy-10,13-dimethyldodecahydro-1H-cyclopenta[a]phenanthren-17(2H,10H,14H)-ylidene)hydrazono)indolin-2-one]
[1]
  IC50: 5.41 ± 1.44 µM
In vitro
  IC50: 12.8 ± 2.79 µM
[2]
  IC50: 9.2 ± 1.68 µM
[3]
  IC50: 7.71 ± 2.13 µM

## C[C@]12CC[C@@H](O)C[C@@H]1CC[C@@H]1[C@@H]2CC[C@]2(C)C(=NN=C3C(=O)Nc4ccc(Cl)cc43)CC[C@@H]12 [6c, 5-Chloro-3-(((3R,5S,8R,9S,10S,13S,14S)-3-hydroxy-10,13-dimethyldodecahydro-1H-cyclopenta[a]phenanthren-17(2H,10H,14H)-ylidene)hydrazono)indolin-2-one]
[1]
  IC50: 4.84 ± 1.05 µM
In vitro
  IC50: 6.36 ± 1.37 µM
[4]
  dose-response of cell growth inhibition: dose-dependent manner
[2]
  IC50: 6.83 ± 2.01 µM
[3]
  IC50: 8.78 ± 0.64 µM

## C[C@]12CC[C@H](O)CC1CC[C@@H]1[C@@H]2CC[C@]2(C)C(=NN=C3C(=O)Nc4cc(F)ccc43)CC[C@@H]12 (stereo partly drawn) [3h, 6-Fluoro-3-(((3S,8R,9S,10S,13S,14S)-3-hydroxy-10,13-dimethyldodecahydro-1H-cyclopenta[a]phenanthren-17(2H,10H,14H)-ylidene)hydrazono)indolin-2-one]
[1]
  IC50: 4.85 ± 0.84 µM
In vitro
  IC50: 7.87 ± 2.04 µM
[2]
  IC50: 7.22 ± 1.17 µM
[3]
  IC50: 6.85 ± 1.99 µM

## C[C@]12CC[C@@H](O)C[C@@H]1CC[C@@H]1[C@@H]2CC[C@]2(C)C(=NN=C3C(=O)Nc4ccc(Br)cc43)CC[C@@H]12 [6d, 5-Bromo-3-(((3R,5S,8R,9S,10S,13S,14S)-3-hydroxy-10,13-dimethyldodecahydro-1H-cyclopenta[a]phenanthren-17(2H,10H,14H)-ylidene)hydrazono)indolin-2-one]
[1]
  IC50: 6.1 ± 2.09 µM
In vitro
  IC50: 4.4 ± 0.68 µM
[2]
  IC50: 7.14 ± 1.41 µM
[3]
  IC50: 8.08 ± 0.51 µM

## C[C@]12CC[C@@H](O)C[C@@H]1CC[C@@H]1[C@@H]2CC[C@]2(C)C(=O)CC[C@@H]12 [Androsterone]
[1]
  IC50: > 100 µM
In vitro
  IC50: > 100 µM
[2]
  IC50: > 100 µM
[3]
  IC50: > 100 µM

## C[C@]12CC[C@@H](O)C[C@@H]1CC[C@@H]1[C@@H]2CC[C@]2(C)C(=NN=C3C(=O)Nc4ccc(I)cc43)CC[C@@H]12 [6e, 3-(((3R,5S,8R,9S,10S,13S,14S)-3-Hydroxy-10,13-dimethyldodecahydro-1H-cyclopenta[a]phenanthren-17(2H,10H,14H)-ylidene)hydrazono)-5-iodoindolin-2-one]
[1]
  IC50: 8.99 ± 3.13 µM
In vitro
  IC50: 18.5 ± 1 µM
[4]
  IC50: 8 to 20 µM
[2]
  IC50: 17.1 ± 3.68 µM
[3]
  IC50: 19.7 ± 1.89 µM

## O=c1[nH]cc(F)c(=O)[nH]1 [5-FU, 5-Fluorouracil, reference compound]
[1]
  IC50: 63.2 ± 12.6 µM
In vitro; HL-7702 normal liver cells
  IC50: 86 ± 9.61 µM
[2]
  IC50: 62 ± 8.38 µM
[3]
  IC50: 65.3 ± 7.3 µM

## C[C@]12CC[C@H](O)CC1CC[C@@H]1[C@@H]2CC[C@]2(C)C(=NN=C3C(=O)Nc4ccc(Br)cc43)CC[C@@H]12 (stereo partly drawn) [3d, 5-Bromo-3-(((3S,8R,9S,10S,13S,14S)-3-hydroxy-10,13-dimethyldodecahydro-1H-cyclopenta[a]phenanthren-17(2H,10H,14H)-ylidene)hydrazono)indolin-2-one]
[1]
  IC50: 8.29 ± 2.41 µM
In vitro
  IC50: 14.1 ± 3.79 µM
[2]
  IC50: 8.43 ± 2.23 µM
[3]
  IC50: 11.6 ± 2.84 µM

## C[C@]12CC[C@@H](O)C[C@@H]1CC[C@@H]1[C@@H]2CC[C@]2(C)C(=NN=C3C(=O)Nc4ccccc43)CC[C@@H]12 [6a, 3-(((3R,5S,8R,9S,10S,13S,14S)-3-Hydroxy-10,13-dimethyldodecahydro-1H-cyclopenta[a]phenanthren-17(2H,10H,14H)-ylidene)hydrazono)indolin-2-one]
[1]
  IC50: 20.4 ± 6.69 µM
In vitro
  IC50: 8.29 ± 2.24 µM
[2]
  IC50: 13.8 ± 2.65 µM
[3]
  IC50: 21.7 ± 4.82 µM
